A short description of the test: Inhibition of Escherichia coli murB-mediated eduction of enolpyruvyl uridine diphosphate N-acetylglucosamine to uridine diphosphate N-acetyl muramic acid.
`O=C(c1c(O)n(-c2ccc(Cl)cc2)n(-c2ccc(Cl)cc2)c1=O)C1CCCCC1` gave a negative logarithm of the IC50 (pIC50) of 4.62.
For `COc1ccc(C(=O)c2c(O)n(-c3ccc(Cl)cc3)n(-c3ccc(Cl)cc3)c2=O)cc1`, the pIC50 was 4.796.
In the case of `O=C(c1ccc(Cl)cc1)c1c(O)n(-c2ccc(Cl)cc2)n(-c2ccc(Cl)cc2)c1=O` it was 4.863.
The compound `O=C(c1ccc(C(F)(F)F)cc1)c1c(O)n(-c2ccc(Cl)cc2)n(-c2ccc(Cl)cc2)c1=O` showed a pIC50 of 4.824.
For `O=C(Nc1ccc(C(F)(F)F)cc1)c1c(O)n(-c2cccc(Cl)c2)n(-c2cccc(Cl)c2)c1=O`, the pIC50 stood at 5.061.
Then `O=C(Nc1ccccc1)c1c(O)n(-c2ccccc2)n(-c2ccccc2)c1=O`, with 4.268; and `O=C(Nc1ccc(Cl)c(Cl)c1)c1c(O)n(-c2ccc(Cl)c(Cl)c2)n(-c2ccc(Cl)c(Cl)c2)c1=O`, with 5.319; and `O=C(Nc1ccc(Cl)cc1)c1c(O)n(-c2ccc(Cl)cc2)n(-c2ccc(Cl)cc2)c1=O`, with 4.959.
Then `O=C(Nc1ccc(Cl)c(Cl)c1)c1c(O)n(-c2ccc(Cl)cc2)n(-c2ccc(Cl)cc2)c1=O`, with 4.886.
In the case of `COc1ccc(NC(=O)c2c(O)n(-c3ccc(Cl)cc3)n(-c3ccc(Cl)cc3)c2=O)cc1` it was 5.
`CCCCOc1ccc(C(=O)c2c(O)n(-c3ccc(Cl)cc3)n(-c3ccc(Cl)cc3)c2=O)cc1` came in with a pIC50 of 5.347.
Then `O=C(c1ccc(OC(F)(F)F)cc1)c1c(O)n(-c2ccc(Cl)cc2)n(-c2ccc(Cl)cc2)c1=O`, with 5.268.
In the case of `O=C(c1ccc(-c2ccccc2)cc1)c1c(O)n(-c2ccc(Cl)cc2)n(-c2ccc(Cl)cc2)c1=O` it was 5.215.
Then `O=C(c1cccs1)c1c(O)n(-c2ccc(Cl)cc2)n(-c2ccc(Cl)cc2)c1=O`, with 5.237; and `COc1ccc(CC(=O)c2c(O)n(-c3ccc(Cl)cc3)n(-c3ccc(Cl)cc3)c2=O)cc1`, with 4.398; and `O=C(c1ccccc1)c1c(O)n(-c2ccc(Cl)cc2)n(-c2ccc(Cl)cc2)c1=O`, with 5.009.
`O=C(c1cccc(C(F)(F)F)c1)c1c(O)n(-c2ccc(Cl)cc2)n(-c2ccc(Cl)cc2)c1=O` returned a pIC50 of 5.26.
Then `O=C(c1cccc(Cl)c1)c1c(O)n(-c2ccc(Cl)cc2)n(-c2ccc(Cl)cc2)c1=O`, with 5.229.
In turn, `O=C(c1ccccc1Cl)c1c(O)n(-c2ccc(Cl)cc2)n(-c2ccc(Cl)cc2)c1=O` yielded a pIC50 of 4.914.
As for `N#Cc1ccc(C(=O)c2c(O)n(-c3ccc(Cl)cc3)n(-c3ccc(Cl)cc3)c2=O)cc1`, the pIC50 worked out at 4.882.
Then `CCOC(=O)c1cccc(C(=O)c2c(O)n(-c3ccc(Cl)cc3)n(-c3ccc(Cl)cc3)c2=O)c1`, with 4.754.
In the case of `O=C(c1ccc(O)cc1)c1c(O)n(-c2ccc(Cl)cc2)n(-c2ccc(Cl)cc2)c1=O` it was 4.66; in that of `O=C(CCc1ccccc1)c1c(O)n(-c2ccc(Cl)cc2)n(-c2ccc(Cl)cc2)c1=O`, 5.018.
In the case of `CC(C(=O)c1c(O)n(-c2ccc(Cl)cc2)n(-c2ccc(Cl)cc2)c1=O)c1ccc(Br)cc1` (stereo not drawn) it was 5.252; in that of `O=C(Nc1ccc(Cl)cc1)c1c(O)n(-c2ccccc2)n(-c2ccccc2)c1=O`, 4.268; in that of `O=C(Nc1ccc(Cl)cc1)c1c(O)n(-c2cccc(Cl)c2)n(-c2cccc(Cl)c2)c1=O`, 5.066.
In the case of `Cc1ccc(NC(=O)c2c(O)n(-c3ccc(Cl)c(Cl)c3)n(-c3ccc(Cl)c(Cl)c3)c2=O)cc1`, the pIC50 came to 5.319.
As to `O=C(Nc1ccc(Br)cc1)c1c(O)n(-c2ccccc2)n(-c2ccccc2)c1=O`, the pIC50 worked out at 4.377.

A word on the pIC50: it is −log10 of the IC50, conventionally taken in molar units. A high value points to a low IC50.

Values taken from ChEMBL document CHEMBL3044812, “QSAR analysis of Mur B inhibitors with antibacterial properties discussing role of physico-chemical parameters” (Med Chem Res, 2011).
